BindingDB's records for doi:10.1096/fj.02-0026fje (Chul, 2002)

What was measured:
[1] = biological target: T1, 17-beta-hydroxysteroid dehydrogenase type 1 (Homo sapiens, UniProt P14061); assay: Enzymatic Assay (Inhibition of Type 1 17beta-HSD); conditions: pH 7.4; 37 °C
T1 sequence (P14061 whole entry): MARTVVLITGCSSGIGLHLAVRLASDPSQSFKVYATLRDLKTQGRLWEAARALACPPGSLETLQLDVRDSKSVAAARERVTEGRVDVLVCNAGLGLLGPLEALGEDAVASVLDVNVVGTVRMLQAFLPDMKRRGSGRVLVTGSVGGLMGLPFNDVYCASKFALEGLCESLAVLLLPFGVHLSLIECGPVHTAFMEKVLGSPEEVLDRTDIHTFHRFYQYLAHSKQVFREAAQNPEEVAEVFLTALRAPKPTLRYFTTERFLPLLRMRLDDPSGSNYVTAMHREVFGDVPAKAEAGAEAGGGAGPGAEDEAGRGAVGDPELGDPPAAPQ
Procedure: The enzymatic reaction was performed in the reaction buffer containing substrate, [14C]-estrone, and the test inhibitors. After the reaction, radiolabeled steroids were extracted from the reaction mixture, and solvent was evaporated to dryness. Steroids were dissolved and separated on TLC plates. Radioactivity signals were detected and quantified using a PhosphoImager (Sunny Vale, CA). The percentage of transformation of [14C]-E1 into [14C]-E2 was calculated. The IC50 values were calculated using an unweighted iterative least-squares method for four-parameter logistic curve fitting (DE50 program, CHUL Research Center, Quebec).

[2] = biological target: T1, 17-beta-hydroxysteroid dehydrogenase type 1; assay: Enzyme Inhibition on the Conversion of E2 to E1 by 17beta-HSD1; conditions: pH 7.5; 37 °C
Text: For steady-state kinetic study of hybrid inhibitors, a Fluorolog 3 instrument was used to monitor the fluorescent signal of NADPH formed during estradiol oxidation, through which the substrate conversion is monitored. The excitation wavelength was 340 nm, and the emission wavelength was 460 nm. […] Ki was further determined by a plot of Km vs. the inhibitor concentration.

SMILES | IC50 [1] | Ki [2]
C[C@]12CC[C@@H]3c4ccc(O)cc4CC[C@H]3[C@@H]1CC(CCCCCCCCC(=O)OCC1OC(n3cnc4c(N)ncnc43)C(O)C1O)[C@@H]2O (stereo not given in full) [EM1745] | 52 nM | 3 nM
C[C@]12CC[C@@H]3c4ccc(O)cc4CC[C@H]3[C@@H]1CC(CCCCCCCC(=O)OCC1OC(n3cnc4c(N)ncnc43)C(O)C1O)[C@@H]2O (stereo partly drawn) [[5-(6-amino-9H-purin-9-yl)-3,4-dihydroxyoxolan-2-yl]methyl 8-[(1S,10R,11S,14S,15S)-5,14-dihydroxy-15-methyltetracyclo[8.7.0.0^{2,7}.0^{11,15}]heptadeca-2,4,6-trien-13-yl]octanoate] | 93 nM | –
C[C@]12CC[C@@H]3c4ccc(O)cc4CC[C@H]3[C@@H]1CC(CCCCCCCCCC(=O)OCC1OC(n3cnc4c(N)ncnc43)C(O)C1O)[C@@H]2O (stereo partly drawn) [[5-(6-amino-9H-purin-9-yl)-3,4-dihydroxyoxolan-2-yl]methyl 10-[(1S,10R,11S,14S,15S)-5,14-dihydroxy-15-methyltetracyclo[8.7.0.0^{2,7}.0^{11,15}]heptadeca-2,4,6-trien-13-yl]decanoate] | 140 nM | –
CCCCCCCCC(=O)OCC1OC(n2cnc3c(N)ncnc32)C(O)C1O (stereo not given) [[5-(6-amino-9H-purin-9-yl)-3,4-dihydroxyoxolan-2-yl]methyl nonanoate] | – | 250000 nM
